Measured values as given in patent US20240041767A1, “Mitochondria-Enriched Extracellular Vesicles” (Duquesne University of the Holy Spirit, priority 2022, published 2024).

Key:
recipient hCMEC/D3 BECs = assay: Uptake of MitoT-red-EVs into recipient hCMEC/D3 cells, flow cytometry; type: cell-based, human; details: cells pre-stained with 100 nM MitoT-red for 30 min
Description: Uptake of Mitotracker-labeled naïve and mito-EVs into the recipient hCMEC/D3 cells (isolation of mitochondria-labeled naïve and mito-EVs) hCMEC/D3 BECs and NIH/3T3 fibroblasts were cultured in T175 flasks to confluency. The complete growth medium was removed and cells were washed with 1× PBS. Cells were treated with 100 nM MitoTracker deep red (MitoT-red) diluted in serum-free medium for 30 min in a 37° C. humidified incubator, and following that, the cells were washed with 1× PBS. For naïve EVs, cells were incubated with serum-free medium for 48 h, whereas for mito-EVs, cells were incubated with serum-free medium containing 10 μM Resveratrol for 48 h. Post-incubation, the conditioned medium was collected into polystyrene centrifuge tubes. […] The EV protein content in MitoT-red-sEVs and MitoT-red-m/lEVs were determined using MicroBCA assay, and the samples were stored at −80° C. until further use.
Uptake of hCMEC/D3 BEC- and NIH/3T3 fibroblast-derived MitoT-red-EVs into recipient hCMEC/D3 cells using flow cytometry hCMEC/D3 BECs (P31) were seeded in a 48-well plate at a seeding density of 50,000 cells/well in complete growth medium and cultured for 48 hours in a humidified incubator at 37° C. […] For each sample, an aliquot of a 100 μL cell suspension was analyzed on an Attune N×T Flow cytometer and 10,000 events were recorded in FSC vs. SSC plots. […]

PGC-1α [1] = assay: PGC-1α protein expression by western blotting in Resveratrol-treated hCMEC/D3 BECs; type: cell-based, human; details: hCMEC/D3 cells
Description: (§1) Measurement of PGC-1α expression using western blotting (Activation of hCMEC/D3 brain endothelial cells and NIH/3T3 fibroblasts with Resveratrol and preparation of cell lysate for western blotting) hCMEC/D3 brain endothelial cells (BECs) and NIH/3T3 fibroblasts were seeded in a 24-well plate at 100,000 cells/well-seeding density in complete growth medium and cultured for 48 hours in a humidified incubator at 37° C. The cells were treated with different concentrations of Resveratrol ranging from 0.1 to 50 μM in complete growth medium for 24 h. Untreated cells were incubated with a complete growth medium and used as the control for the treatment groups. Post-treatment, the cells were washed with 1× PBS, and the cell suspension was collected in centrifuge tubes. The cell suspension was centrifuged at 300×g for 10 min at 4° C., washed with 1× PBS, and the cell pellet was lysed with 1× RIPA buffer containing 3 μg/mL aprotinin. The total protein concentration in the cell lysates was measured using a BCA assay.
(§2) Detection of PGC1α protein expression in hCMEC/D3 BECs and NIH/3T3 fibroblasts using western blotting A 40 μg cell lysate of untreated and Resveratrol treated hCMEC/D3 BECs and NIH/3T3 fibroblasts were mixed with 4× laemmli buffer and distilled water. The mixture was heated at 95° C. for 5 min using a heating block (Thermo Scientific). Denatured samples and standard molecular weight markers (ladder, 250-25 kD) were separated on a 4-10% gradient sodium dodecyl sulfate polyacrylamide gel at 120 V for 90 min using a PowerPac Basic setup (Bio-Rad Laboratories, Inc.). The gel was washed with deionized water for 30 min, and the proteins were transferred from the gel to a 0.45 μm nitrocellulose membrane using a transfer assembly (Bio-Rad Laboratories, Inc.) at 75 V and 300 mA for 90 min. Following that, the membrane was washed with tris-buffered saline pH 7.4 containing 1% tween 20 (T-TBS) for 45 min and blocked with Intercept blocking buffer (Li-COR Inc., Lincoln, NE) for an hour at room temperature. […]

PGC-1α [2] = assay: PGC-1α protein expression by western blotting in Resveratrol-treated NIH/3T3 fibroblasts; type: cell-based, mouse; details: NIH/3T3 cells, 24 h, vs untreated cells
Description: as §1, §2

SMILES: C[N+]1=C(/C=C/C=C/C=C2\N(Cc3ccc(CCl)cc3)c3ccccc3C2(C)C)C(C)(C)c2ccccc21.[Cl-] [MitoT-red]
- MitoT+ve cells, positive control (recipient hCMEC/D3 BECs): about 77%

SMILES: Oc1ccc(C=Cc2cc(O)cc(O)c2)cc1 [Resveratrol]
- PGC-1α and GAPDH protein expression (PGC-1α [1]; Resveratrol 10 μM to 50 μM, 24 h): gradual and considerable decrease
- PGC-1α protein band densities (PGC-1α [1]; Resveratrol 0.1 and 1 μM, 24 h, vs untreated cells): slight increase
- increase in normalized PGC-1α protein expression (PGC-1α [1]; Resveratrol up to 1 μM, vs untreated cells): 5%
- normalized PGC-1α expression (PGC-1α [2]; 10 μM Resveratrol): statistically significant (p<0.01) increase
- PGC-1α expression (PGC-1α [2]; 50 μM Resveratrol): considerable (p=0.07) decrease
- normalized PGC-1α expression (densitometry) (PGC-1α [2]; Resveratrol 0.1 to 50 μM): concentration-dependent increase in PGC-1α expression
